Legend:
[1] = Bioavailability (10 mg/kg, p.o.) in Sprague Dawley rats; format: ADME, organism-based; conditions: rat, in vivo, po
[2] = Half-life (2 mg/kg, i.v.) was determined in Sprague-Dawley rats; format: ADME, organism-based; conditions: rat, in vivo, iv
[3] = Plasma clearance (2 mg/kg, i.v.) was determined in Sprague-Dawley rats; format: ADME, organism-based; conditions: rat, iv, read-out: Clp
[4] = target: T1, Metabotropic glutamate receptor 5 (Homo sapiens, UniProt P41594); assay: In vitro potency against calcium flux in Ltk cells expressing human recombinant metabotropic glutamate receptor 5 using fluorescence detection; format: cell-based
T1 sequence (P41594 whole entry): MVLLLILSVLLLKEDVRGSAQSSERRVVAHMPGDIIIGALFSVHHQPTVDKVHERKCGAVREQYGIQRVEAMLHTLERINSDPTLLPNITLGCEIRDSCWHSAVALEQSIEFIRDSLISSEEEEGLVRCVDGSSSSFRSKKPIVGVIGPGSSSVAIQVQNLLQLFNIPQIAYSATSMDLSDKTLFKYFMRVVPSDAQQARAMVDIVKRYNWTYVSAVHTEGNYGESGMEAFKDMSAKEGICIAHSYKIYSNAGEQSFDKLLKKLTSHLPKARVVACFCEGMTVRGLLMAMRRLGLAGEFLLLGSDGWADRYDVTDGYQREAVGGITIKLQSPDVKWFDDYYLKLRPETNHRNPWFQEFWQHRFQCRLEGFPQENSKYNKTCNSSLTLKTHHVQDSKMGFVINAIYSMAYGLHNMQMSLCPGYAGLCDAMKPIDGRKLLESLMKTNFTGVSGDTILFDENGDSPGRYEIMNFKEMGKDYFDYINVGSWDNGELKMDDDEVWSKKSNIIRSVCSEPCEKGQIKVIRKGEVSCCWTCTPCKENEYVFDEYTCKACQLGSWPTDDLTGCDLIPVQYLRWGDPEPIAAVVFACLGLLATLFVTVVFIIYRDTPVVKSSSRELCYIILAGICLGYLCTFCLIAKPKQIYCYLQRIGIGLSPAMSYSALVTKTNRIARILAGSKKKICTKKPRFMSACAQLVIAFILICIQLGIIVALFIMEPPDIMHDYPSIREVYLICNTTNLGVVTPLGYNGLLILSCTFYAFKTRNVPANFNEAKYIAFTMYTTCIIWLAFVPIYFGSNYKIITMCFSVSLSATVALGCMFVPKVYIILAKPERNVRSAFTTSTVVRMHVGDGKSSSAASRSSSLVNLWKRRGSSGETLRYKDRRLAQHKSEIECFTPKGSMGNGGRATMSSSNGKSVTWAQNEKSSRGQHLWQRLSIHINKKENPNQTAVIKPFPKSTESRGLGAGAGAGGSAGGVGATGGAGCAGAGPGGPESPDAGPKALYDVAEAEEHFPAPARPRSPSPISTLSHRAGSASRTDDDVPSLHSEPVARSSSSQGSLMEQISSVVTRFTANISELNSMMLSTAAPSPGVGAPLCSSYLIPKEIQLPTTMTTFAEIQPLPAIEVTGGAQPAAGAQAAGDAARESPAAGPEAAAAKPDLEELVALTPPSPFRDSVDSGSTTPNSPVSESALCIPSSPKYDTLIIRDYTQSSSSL

[5] = system: Rattus norvegicus; assay: In vivo receptor occupancy was determined in rats following intravenous dosage at 10 mg/kg; format: functional
[6] = Volume of distribution (2 mg/kg, iv.) was determined in Sprague Dawley rats; not determined; format: ADME, organism-based; conditions: rat, in vivo
[7] = target: T1, Metabotropic glutamate receptor 5; assay: In vitro potency against calcium flux in Ltk cells expressing human recombinant metabotropic glutamate receptor 5 using fluorescence detection; not active at 10 uM; format: cell-based
[8] = Volume of distribution (2 mg/kg, iv.) was determined in Sprague Dawley rats; format: ADME, organism-based; conditions: rat, in vivo
[9] = Bioavailability (10 mg/kg, p.o.) was determined in Sprague Dawley rats; format: ADME, organism-based; conditions: rat, in vivo, po

CCOc1cc(-c2cccnc2)cnc1Nc1cccc(C)n1
bioavailability [1]: 38% | half-life [2]: 60 min | clearance [3]: 50 mL/min/kg | IC50 [4]: 12 nM

CCOc1cc(-c2cncnc2)cnc1Nc1cccc(C)n1
bioavailability [1]: 67% | half-life [2]: 36 min | clearance [3]: 79 mL/min/kg | Receptor occupancy [5]: 79% | IC50 [4]: 36 nM | Vd [6]: 2.3 L/kg

Cc1cccc(Nc2ncccc2C)n1
IC50 [7]: Not Active

CCOc1cccnc1Nc1ccccn1
bioavailability [1]: 16% | Vd [8]: 2.9 L/kg | half-life [2]: 48 min | clearance [3]: 78 mL/min/kg | IC50 [4]: 138 nM

CCOc1cccnc1Nc1cccc(C(F)(F)F)n1
IC50 [4]: 1900 nM

CCOc1cccnc1Nc1cccc(OC)n1
IC50 [4]: 556 nM

CCOc1cccnc1Nc1cccc(C(=O)OC)n1
IC50 [4]: 6200 nM

Cc1cccc(Nc2ncccc2O)n1
IC50 [7]: Not Active

COc1cccnc1Nc1cccc(C)n1
IC50 [4]: 458 nM

CCOc1ncccc1Nc1cccc(C)n1
IC50 [7]: Not Active

Cc1cccc(Nc2ncccc2C#N)n1
IC50 [7]: Not Active

CCOc1cc(-c2cnccc2C)cnc1Nc1cccc(C)n1
bioavailability [1]: 8% | half-life [2]: 42 min | clearance [3]: 105 mL/min/kg | IC50 [4]: 45 nM | Vd [6]: 4.7 L/kg

Cc1cccc(Nc2ncccc2OCc2ccccc2)n1
IC50 [4]: 870 nM

CCCOc1cccnc1Nc1cccc(C)n1
IC50 [4]: 1600 nM

Cc1cccc(Nc2ncccc2-c2ccccc2)n1
IC50 [7]: Not Active

CCOc1cc(C#N)cnc1Nc1cccc(C)n1
bioavailability [1]: 13% | Vd [8]: 7 L/kg | half-life [2]: 96 min | clearance [3]: 90 mL/min/kg | IC50 [4]: 46 nM

CCOc1cc(-c2ccc(C)cc2)cnc1Nc1cccc(C)n1
IC50 [4]: 513 nM

CCOc1cc(-c2cccnc2C#N)cnc1Nc1cccc(C)n1
IC50 [4]: 80 nM

CCOc1cc(C)cnc1Nc1cccc(C)n1
IC50 [4]: 119 nM

CCOc1ccc(C)nc1Nc1cccc(C)n1
IC50 [7]: Not Active

CCOc1cc(-c2ccccc2C#N)cnc1Nc1cccc(C)n1
IC50 [4]: 37 nM

CSc1cccnc1Nc1cccc(C)n1
IC50 [4]: 790 nM

COC(=O)c1cccnc1Nc1cccc(C)n1
IC50 [7]: Not Active

CCOc1cc(-c2ccsn2)cnc1Nc1cccc(C)n1
IC50 [4]: 243 nM

CCOc1ccccc1Nc1cccc(C)n1
IC50 [7]: Not Active

CCOc1cc(Cl)cnc1Nc1cccc(C)n1
IC50 [4]: 17 nM

CCNc1cccnc1Nc1cccc(C)n1
IC50 [4]: 3000 nM

CCCc1cccnc1Nc1cccc(C)n1
half-life [2]: 60 min | clearance [3]: 320 mL/min/kg | IC50 [4]: 394 nM

CCOc1c(C)ccnc1Nc1cccc(C)n1
IC50 [4]: 2700 nM

Cc1cccc(Nc2ncccc2OC(C)C)n1
IC50 [4]: 1000 nM

CCOc1cc(-c2ccccc2)cnc1Nc1cccc(C)n1
IC50 [4]: 267 nM

CCOc1cc(Oc2cccnc2)cnc1Nc1cccc(C)n1
half-life [2]: 72 min | clearance [3]: 52 mL/min/kg | Receptor occupancy [5]: 82% | IC50 [4]: 18 nM | Vd [6]: 3.7 L/kg

CCOc1cc(-c2cccc(F)c2)cnc1Nc1cccc(C)n1
bioavailability [1]: 19% | Vd [8]: 3 L/kg | half-life [2]: 30 min | clearance [3]: 93 mL/min/kg | IC50 [4]: 126 nM

CCOc1cc(Br)cnc1Nc1cccc(C)n1
IC50 [4]: 47 nM

Cc1cccc(Nc2ncccc2-c2cccnc2)n1
IC50 [7]: Not Active

CCOc1cc(-c2ccccn2)cnc1Nc1cccc(C)n1
bioavailability [1]: 0% | Vd [8]: 6.1 L/kg | half-life [2]: 60 min | clearance [3]: 124 mL/min/kg | IC50 [4]: 193 nM

CCOc1nccnc1Nc1cccc(C)n1
half-life [2]: 60 min | clearance [3]: 102 mL/min/kg | IC50 [4]: 497 nM

CCOc1cccnc1Nc1cccc(C)n1
Vd [8]: 1.2 L/kg | half-life [2]: 126 min | clearance [3]: 16 mL/min/kg | IC50 [4]: 40 nM | bioavailability [9]: 11%

COc1cccc(F)c1Nc1cccc(C)n1
IC50 [7]: Not Active

From ChEMBL document CHEMBL1141067, “Dipyridyl amines: potent metabotropic glutamate subtype 5 receptor antagonists” (Bioorg Med Chem Lett, 2005)
